Reference: paper PMC2965873, “Phase I and pharmacological study of the broad-spectrum tyrosine kinase inhibitor JNJ-26483327 in patients with advanced solid tumours” (British Journal of Cancer, 2010)

How the values were obtained:
[1] = system: patients with advanced solid tumours; assay: phase I safety, DLT and MTD; type: in vivo
Experimental: JNJ-26483327 was supplied by Johnson & Johnson Pharmaceutical Research and Development, Beerse, Belgium as 10 or […] oral solution for doses ⩽1200 mg, or capsules of 50, 100 or 300 mg for doses ⩾1500 mg. Medication was taken in combination with food BID with 12 h intervals. A cycle was defined as 28 days of treatment.
The study followed an accelerated-escalation design. Initial cohorts consisted of one patient with dose doublings between cohorts in the absence of grade ⩾2 toxicity according to the National Cancer Institute Common Toxicity Criteria version 3.0 during the first cycle (http://ctep.cancer.gov/protocolDevelopment/electronic_applications/docs/ctcaev3.pdf). Once grade ⩾2 considered drug-related toxicity occurred during the first cycle, two additional patients were enrolled at that dose level with subsequent cohorts in accordance with a conventional dose-escalation (3+3) model. DLT was defined as any grade 3 or 4 non-haematological toxicity, except for nausea, vomiting or diarrhoea responsive to treatment; grade 3 skin rash/acne responsive to treatment, alopecia and isolated grade 3 GGT elevations; need for loperamide for >7 days to treat or prevent grade ⩾2 diarrhoea; need for continuous administration of 5HT-3 antagonists for >7 days to treat or prevent grade ⩾2 nausea or vomiting; a relative decrease of LVEF on MUGA scan of >20% compared with baseline; any grade 4 haematological toxicity or treatment interruptions of >14 days for grade ⩾2 toxicity in cycle 1.
If during the conventional escalation stage no DLT occurred, the dose for the next cohort was incremented with 20–100%. If DLT was observed during cycle 1 in one of three patients, an additional three patients were enrolled at that dose level. If ⩾2 out of 6 patients experienced DLT, the MTD was exceeded and three more patients were enrolled at the next lower dose level, unless already six patients had been accrued at that dose. The MTD was defined as the highest dose at which less than one-third of the patients experienced DLT.
(§1) Prior to therapy, a complete medical history was taken and a physical examination was performed. A complete blood cell (CBC) count, WBC count and differential and serum biochemistry including lipid profile and coagulation tests were performed, as were urinalysis, a 12-lead electrocardiogram (ECG) and MUGA scanning. Weekly evaluations during the first cycle, every other week during the second cycle and monthly thereafter included history, physical examination, adverse event assessment, CBC, WBC+differential, serum chemistry, ECG and urinalysis. An ECG was performed predose and 1, 2, 4, 8 and 24 h postdose on days 1 and 28. Follow-up of LVEF by MUGA scanning was performed at the end of the first and second cycle. Tumour measurements were performed at baseline and during every other cycle. Response was assessed according to RECIST ([Therasse et al, 2000]).

[2] = phase I plasma pharmacokinetics; type: in vivo, human
Experimental: For pharmacokinetic analysis, blood samples (3 ml) were collected before dosing and 0.5, 1, 2, 3, 4, 6, 8 and 24 h after drug administration on days 1 and 28 and predose, 0.5, 1, 2, 4 and 6 h postdose on day 15 of the first cycle and day 28 of the second cycle. Furthermore, trough PK samples were taken before drug administration on days 8 and 22. Blood samples were collected and protected from light in EDTA-Vacutainer® tubes and plasma was separated by centrifugation and stored at −20°C within 2 h of collection. Plasma concentrations of JNJ-26483327 were determined by validated, selective and sensitive liquid chromatography–mass spectrometry bioanalytical method.
Graphical analysis was performed using dose-normalised Cmax as well as AUC of days 1 and 28 for exploration of dose proportionality across doses.
The pharmacokinetic analysis and descriptive statistics were performed using PKAA 2.00 (developed for J&JPRD). PKAA 2.00 uses WinNonLin 5.2.1. Elimination rate constants (λz) were calculated as the negative of the slope of the terminal log-linear segment of the plasma concentration–time curves. The range of data used for each subject and dose were determined by visual inspection of a semi-logarithmic plot of concentration vs time. At least three data points were used to estimate λz. All PK calculations and figures used validated software.

[3] = system: advanced solid tumours; assay: anti-tumour activity (RECIST); type: in vivo, human; settings: 19 patients
Experimental: as §1

[4] = biological target: EGFR kinase; parameters: method as in Johnson & Johnson, data on file; settings: in vitro; ref Johnson & Johnson, data on file; cited from earlier work
[5] = system: mutationally activated EGFR kinases; parameters: method as in Johnson & Johnson, data on file; settings: in vitro, several mutants; ref Johnson & Johnson, data on file; cited from earlier work
[6] = biological target: RET-receptor kinase; parameters: method as in Johnson & Johnson, data on file; settings: in vitro; ref Johnson & Johnson, data on file; cited from earlier work
[7] = system: Her4; parameters: method as in Johnson & Johnson, data on file; settings: ref Johnson & Johnson, data on file; read-out: IC50 range; cited from earlier work
[8] = system: Lyn; parameters: method as in Johnson & Johnson, data on file; settings: Src family; ref Johnson & Johnson, data on file; read-out: IC50 range; cited from earlier work
[9] = system: Fyn; parameters: method as in Johnson & Johnson, data on file; settings: Src family; ref Johnson & Johnson, data on file; read-out: IC50 range; cited from earlier work
[10] = system: Yes; parameters: method as in Johnson & Johnson, data on file; settings: Src family; ref Johnson & Johnson, data on file; read-out: IC50 range; cited from earlier work
[11] = system: c-Src; parameters: method as in Johnson & Johnson, data on file; settings: ref Johnson & Johnson, data on file; cited from earlier work
[12] = system: Her2; parameters: method as in Johnson & Johnson, data on file; settings: ref Johnson & Johnson, data on file; cited from earlier work
[13] = system: Flt3; parameters: method as in Johnson & Johnson, data on file; settings: ref Johnson & Johnson, data on file; cited from earlier work
[14] = parameters: method as in Johnson & Johnson, data on file; settings: ref Johnson & Johnson, data on file; cited from earlier work
[15] = parameters: method as in Johnson & Johnson, data on file; settings: preclinical studies; ref Johnson & Johnson, data on file; cited from earlier work
[16] = system: xenograft mouse models; parameters: method as in Johnson & Johnson, data on file; settings: preclinical studies; ref Johnson & Johnson, data on file; cited from earlier work
[17] = system: healthy male volunteers; parameters: method as in preceding study in healthy male volunteers; settings: single doses up to and including 200 mg; ref preceding study in healthy male volunteers; cited from earlier work
[18] = 800 mg BID, day 1, n=3, mean±s.d.
[19] = 800 mg BID, day 28 (steady state), n=2, mean
[20] = 1200 mg BID, day 1, n=3, mean±s.d.
[21] = 1200 mg BID, day 28 (steady state), n=2, mean
[22] = 1500 mg BID, day 1, n=6, mean±s.d.
[23] = 1500 mg BID, day 28 (steady state), n=6, mean±s.d.
[24] = 2100 mg BID, day 1, n=3, mean±s.d.
[25] = 2100 mg BID, day 28 (steady state), n=2, mean

In the case of `COc1cc2ncnc3c2cc1OCCCCCN(C)Cc1ccc(Br)cc1N3` [JNJ-26483327], the “Anaemia: patients, Total %” value ([1]; in vivo) is reported as 15.8%, the “Anaemia: patients, Total n” value ([1]; in vivo) is reported as 3 and the “Anorexia: patients, Total %” value ([1]; in vivo) is reported as 42.1%. For the same molecule, the “Constipation: patients, Total %” value ([1]; in vivo) was 10.5%, the “Constipation: patients, Total n” value ([1]; in vivo) was 2 and the “Diarrhoea: patients, Total n” value ([1]; in vivo) was 12. For the same molecule, the “Dry skin: patients, Total %” value ([1]; in vivo) was 10.5%, the “Dry skin: patients, Total n” value ([1]; in vivo) was 2 and the “Dyspepsia: patients, Total %” value ([1]; in vivo) was 10.5%. For the same molecule, the “Dyspepsia: patients, Total n” value ([1]; in vivo) was 2, the “Dysphonia: patients, Total %” value ([1]; in vivo) was 15.8% and the “Dysphonia: patients, Total n” value ([1]; in vivo) was 3. For the same molecule, the “Fatigue: patients, Total %” value ([1]; in vivo) was 47.4%, the “Fatigue: patients, Total n” value ([1]; in vivo) was 9 and the “Nausea: patients, Total %” value ([1]; in vivo) was 68.4%. The “Nausea: patients, Total n” value ([1]; in vivo) was 13, the “Pain: patients, Total %” value ([1]; in vivo) was 10.5% and the “Pain: patients, Total n” value ([1]; in vivo) was 2. The “Rash: patients, Total %” value ([1]; in vivo) was 57.9%, the “Rash: patients, Total n” value ([1]; in vivo) was 11 and the “Skin discolouration: patients, Total %” value ([1]; in vivo) was 5.3%. The “Skin discolouration: patients, Total n” value ([1]; in vivo) was 1, the “Skin exfoliation (palms): patients, Total %” value ([1]; in vivo) was 5.3% and the “Skin exfoliation (palms): patients, Total n” value ([1]; in vivo) was 1. For the same molecule, the “Vomiting: patients, Total %” value ([1]; in vivo) was 52.6%, the “Vomiting: patients, Total n” value ([1]; in vivo) was 10 and the “Weight decreased: patients, Total %” value ([1]; in vivo) was 10.5%. For the same molecule, the “Weight decreased: patients, Total n” value ([1]; in vivo) was 2, the “gastrointestinal side effects, incidence” value ([1]; in vivo) was 95% and the hypertension ([1]; in vivo) was “no hypertension was noted”. The “patients with grade 2 anaemia” value ([1]; in vivo) was “three”, the “skin toxicity, overall incidence” value ([1]; in vivo) was 68% and the “subjects with a significant decrease in LVEF” value ([1]; in vivo) was “None”. The “recommended dose for further studies (phase 2 dose)” value ([1]; in vivo, po) was 1500 mg BID, the “maximum tolerated dose (MTD)” value ([1]; oral, continuous, 28-day cycles) was 1500 mg BID and the CL/F [2, 18] was 86.3 ± 33.5 L/h. It also gave a Cmax [2, 18] of 2210 ± 593 ng/mL, a Vdz/F [2, 18] of 1021 ± 401 L and a t1/2 [2, 18] of 8.4 ± 1.8 h. For the same molecule, the tmax ([2]; 800 mg BID, day 1, n=3, median (min–max)) was 2.03 (2.00–3.02) h, the “AUC (AUCtau)” value [2, 19] was 10 623 ng h ml^−1 and the CL/F [2, 19] was 76.4 L/h. The Cmax [2, 19] was 2390 ng/mL, the tmax ([2]; 800 mg BID, day 28 (steady state), n=2, median (min–max)) was 1.52 (1.00–2.03) h and the CL/F [2, 20] was 47.4 ± 35.3 L/h. For the same molecule, the Cmax [2, 20] was 3707 ± 1927 ng/mL, the Vdz/F [2, 20] was 342 ± 212 L and the t1/2 [2, 20] was 5.2 ± 1.7 h. For the same molecule, the tmax ([2]; 1200 mg BID, day 1, n=3, median (min–max)) was 3.00 (2.00–6.00) h, the “AUC (AUCtau)” value [2, 21] was 21 230 ng h ml^−1 and the CL/F [2, 21] was 88.4 L/h. For the same molecule, the Cmax [2, 21] was 2750 ng/mL, the tmax ([2]; 1200 mg BID, day 28 (steady state), n=2, median (min–max)) was 1.00 (1.00–1.00) h and the CL/F [2, 22] was 144 ± 104 L/h. The Cmax [2, 22] was 2361 ± 1765 ng/mL, the Vdz/F [2, 22] was 1038 ± 799 L and the t1/2 [2, 22] was 4.8 ± 0.5 h. For the same molecule, the tmax ([2]; 1500 mg BID, day 1, n=6, median (min–max)) was 4.00 (2.00–4.03) h, the CL/F [2, 23] was 286 ± 540 L/h and the Cmax [2, 23] was 3375 ± 2116 ng/mL. The tmax ([2]; 1500 mg BID, day 28 (steady state), n=6, median (min–max)) was 3.99 (3.00–12.00) h, the CL/F [2, 24] was 3055 ± 5099 L/h and the t1/2 [2, 24] was 6.7 ± 1.7 h. The Cmax ([2]; 2100 mg BID, day 1, n=4, mean±s.d.) was 2213 ± 2983 ng/mL, the tmax ([2]; 2100 mg BID, day 1, n=4, median (min–max)) was 3.54 (2.00–4.08) h and the “AUC (AUCtau)” value [2, 25] was 8467 ng·h/mL. The CL/F [2, 25] was 3087 L/h, the Cmax [2, 25] was 1236 ng/mL and the tmax ([2]; 2100 mg BID, day 28 (steady state), n=2, median (min–max)) was 5.00 (4.00–6.00) h. The “dose proportionality of pharmacokinetics” value ([2]; Cmax and AUC at steady state) was “dose proportional up to 1500 mg”, the terminal half-life ([2]; all dose levels) was 5 to 8 h and the “peak concentration (average)” value ([2]; day 1, 1200 mg) was roughly 4 μg ml^–1. For the same molecule, the Cmax ([2]; day 1, 1500 and 2100 mg dose groups) was roughly 2 μg ml^–1, the “time to reach Cmax” value ([2]; first administration, capsule formulation (dose levels 1500 and 2100 mg)) was “up to 4 h” and the “time to reach Cmax” value ([2]; first administration, liquid formulation (dose levels 800 and 1200 mg)) was 2 to 3 h. The “time to reach Cmax” value ([2]; steady state (days 15 and 28), capsule formulation) was 2 to 5 h, the “time to reach Cmax” value ([2]; steady state (days 15 and 28), liquid formulation) was 1 to 2 h and the “patients with stable disease lasting more than two cycles” value ([3]; 100–2100 mg BID) was “six”. For the same molecule, the “patients with stable disease” value ([3]; more than two cycles) was 32%, the IC50 [4] was less than 10 nM and the IC50 [5] was less than 10 nM. The IC50 [6] was less than 10 nM, the IC50 [7] was 11 to 99 nM and the IC50 [8] was 11 to 99 nM. The IC50 [9] was 11 to 99 nM, the IC50 [10] was 11 to 99 nM and the IC50 [11] was 100 to 1000 nM. For the same molecule, the IC50 [12] was 100 to 1000 nM, the IC50 [13] was 100 to 1000 nM and the oral bioavailability [14] was roughly 80%. For the same molecule, the tissue distribution profile [15] was “passage of the blood–brain barrier”, the anti-cancer activity [16] was “anti-cancer activity was observed” and the safety and tolerability [17] was “safe and well tolerated”.
